The results in this text go back to US8445522B2, “Substituted 2-(4-pyridyl)benzoxazoles, and compositions thereof, for use in arthropod pest control” (Sumitomo Chemical Company, Limited, priority 2009, dated 2013).

Type in all cases: in vivo
Test [1] concerns cotton aphids (Aphis gossypii Glover). Briefly: Test Example 1: test diluent scattered on cucumber seedling inoculated with cotton aphids. Particulars: 120 h, 500 ppm active ingredient, 10 ml scattered on cucumber seedling, counted five days after scattering, read-out: Control value. On the procedure: The formulations were diluted with water so that the concentration of the active ingredient became 500 ppm and thus test diluents were prepared. On the other hand, a cucumber seedling (second true leaf development stage) planted in a plastic cup was inoculated with about 30 cotton aphids (Aphis gossypii Glover) and allowed to stand for one day. To the seedling, any one of the diluents (10 ml) was scattered. Five days after the scattering, the number of survived cotton aphids parasitic on the cucumber leaves was counted, and the control value was calculated by the following equation. Control value(%)={1−(Cb×Tai)/(Cai×Tb)}×100 wherein each character represents the following meaning: Cb: the number of insects in non-treated section before treatment Cai: the number of insects in non-treated section during observation Tb: the number of insects in treated section before treatment Tai: the number of insects in treated section during observation

Test [2] concerns tobacco whitefly. Kind of test: Test Example 4: test diluent scattered on tomato seedling with hatched tobacco whitefly larvae. Particulars: 168 h; 500 ppm, 10 ml/cup scattered on tomato seedling at larvae stage, counted after seven days at 25° C.; read-out: Control value. The procedure: The formulations were diluted with water so that the concentration of the active ingredient became 500 ppm and thus test diluents were prepared. On the other hand, by releasing tobacco whitefly imagos to a tomato seedling planted in a plastic cup to allow them to lay eggs for about 24 hours. The tomato seedling was kept in a green house for eight days. At the stage in which larvae hatched from the laid eggs, any of the test diluents was scattered at the rate of 10 ml/cup. The tomato seedling was kept in the greenhouse at 25° C. for seven days. The number of survived larvae on tomato leaves was counted, and the control value was calculated by the following equation. Control value(%)={1−(Cb×Tai)/(Cai×Tb)}×100 wherein each character represents the following meaning: Cb: number of insects in non-treated section before treatment Cai: number of insects in non-treated section during observation Tb: number of insects in treated section before treatment Tai: number of insects in treated section during observation

For test [3], the system named is rice brown planthopper. Briefly: Test Example 5: test diluent scattered on rice plant seedling, rice brown planthopper released. Particulars: Nilaparvata lugens, 144 h; 500 ppm, 10 ml scattered on rice plant seedling, 30 first-instars released, counted after six days at 25° C.; read-out: Control value. On the procedure:
The formulations were diluted with water so that the concentration of the active ingredient became 500 ppm and thus test diluents were prepared. On the other hand, to a rice plant seedling (two weeks after seeding, second leaf development stage) planted in a plastic cup, any one of the diluents (10 ml) was scattered. After the drug solution scattered on the rice plant was dried, 30 first-instars of rice brown planthopper were released on the rice plant, which was kept in the green house at 25° C. for six days. Thereafter, the number of rice brown planthopper parasitic on rice plant was counted and the control value was calculated by the following equation. Control value(%)={1−(Cb×Tai)/(Cai×Tb)}×100 wherein each character represents the following meaning: Cb: number of insects in non-treated section before treatment Cai: number of insects in non-treated section during observation Tb: number of insects in treated section before treatment Tai: number of insects in treated section during observation

In test [4] the test system is rice brown planthopper. Kind of test: Test Example 6: plant foot irrigation of rice plant seedling, rice brown planthopper released after seven days. The conditions noted are these: Nilaparvata lugens, 144 h; 500 ppm, 5 ml plant foot irrigation of rice seedling; first-instars released after seven days, counted six days after; read-out: Control value. The procedure: The formulations were diluted with water so that the concentration of the active ingredient became 500 ppm and thus test diluents were prepared. On the other hand, a plant foot of rice plant seedling (two weeks after seeding, second leaf development stage) planted in a plastic cup was irrigated with any one of diluents (5 ml). The seedling was kept in a green house of 25° C. for seven days. Thirty first-instars of rice brown planthopper were released to the seedling, which was kept in the green house at 25 C for six days. Thereafter, the number of survived rice brown planthopper parasitic on rice plant leaves was counted, and the control value was calculated by the following equation. Control value(%)={1−(Cb×Tai)/(Cai×Tb)}×100 wherein each character represents the following meaning: Cb: number of insects in non-treated section before treatment Cai: number of insects in non-treated section during observation Tb: number of insects in treated section before treatment Tai: number of insects in treated section during observation

The test system of test [5] is cotton aphids. Briefly: Test Example 3: plant foot irrigation of cucumber seedling in plastic cup, cotton aphids inoculated after seven days. The conditions noted are these: 144 h; 500 ppm, 5 ml plant foot irrigation, plastic cup; aphids inoculated after seven days at 25° C., counted six days after; read-out: Control value. On the procedure: (§1) The formulations were diluted with water so that the concentration of the active ingredient became 500 ppm and thus test diluents were prepared. On the other hand, a plant foot of cucumber seedling (second true leaf development stage) planted in a plastic cup was irrigated with any one of diluents (5 ml). The seedling was kept in a green house of 25° C. for seven days. The cucumber leaves were inoculated with 30 cotton aphids (all stages) and kept in the green house for further six days. Thereafter, the number of survived cotton aphids parasitic on the cucumber leaves was counted, and the control value was calculated by the following equation. Control value(%)={1−(Cb×Tai)/(Cai×Tb)}×100 wherein each character represents the following meaning: Cb: number of insects in non-treated section before treatment Cai: number of insects in non-treated section during observation Tb: number of insects in treated section before treatment Tai: number of insects in treated section during observation

Test [6] deals with cotton aphids. Kind of test: Test Example 2: plant foot irrigation of cucumber seedling in urethane mat, cotton aphids inoculated one day after treatment. The conditions noted are these: 168 h; 500 ppm, 5 ml plant foot irrigation, urethane mat; aphids inoculated one day after treatment, counted seven days after; read-out: Control value. The procedure: as §1, with “urethane mat” for “plastic cup”, “One day after the treatment, the” for “The seedling was kept in a green house of 25° C. for seven days. The”, “stages). Further seven days after,” for “stages) and kept in the green house for further six days. Thereafter,”

Regarding `C#Cc1cnccc1-c1nc2cc(C(F)(F)F)ccc2o1` [active compound 34, 2-(3-ethynylpyridin-4-yl)-5-(trifluoromethyl)benzoxazole], the pest or weed control at 500 ppm in test [1], in test [2] and in test [3] was at least 90% throughout.
With `FC(F)(F)c1cnc2oc(-c3ccncc3Cl)nc2c1` [Active Compound 139, 2-(3-chloropyridin-4-yl)-6-(trifluoromethyl)oxazolo[5,4-b]pyridine], the pest or weed control at 500 ppm in test [3] and in test [4] was at least 90% each time.
Regarding `CCCCCOc1cnccc1-c1nc2cc(C(F)(F)F)ccc2o1` [active compound 123, 2-(3-pentyloxypyridin-4-yl)-5-(trifluoromethyl)benzoxazole], the pest or weed control at 500 ppm in test [2] and in test [3] was at least 90% in each case.
For `Cc1cnn(-c2cnccc2-c2nc3cc(C(F)(F)F)ccc3o2)c1` [active compound 61, 2-[3-(4-methylpyrazole-1-yl)pyridin-4-yl]-5-(trifluoromethyl)benzoxazole], the pest or weed control at 500 ppm in test [1] and in test [3] was at least 90% each time.
Take `CC(C)Oc1cnccc1-c1nc2cc3c(cc2o1)C(F)(F)OC3(F)F` [active compound 97, 5,5,7,7-tetrafluoro-2-(3-isopropoxypyridin-4-yl)-5,7-dihydro-furo[3′,4′:4,5]benzo[1,2-d]oxazole]: the pest or weed control at 500 ppm in test [1], in test [2], in test [3] and in test [4] was at least 90% in each case.
As to `COc1cnccc1-c1nc2cc(C(F)(F)F)cnc2o1` [Active Compound 145, 2-(3-methoxypyridin-4-yl)-6-(trifluoromethyl)oxazolo[5,4-b]pyridine], the pest or weed control at 500 ppm in test [5] is at least 90%.
Take `CC(C)(C)c1ccc2oc(-c3ccncc3C(F)(F)F)nc2c1` [active compound 107, 5-tert-butyl-2-(3-trifluoromethylpyridin-4-yl)benzoxazole]: the pest or weed control at 500 ppm in test [6], in test [2], in test [3] and in test [4] was at least 90% each time.
Consider `CS(=O)(=O)c1cnccc1-c1nc2cc(C(F)(F)F)ccc2o1` [active compound 135, 2-[3-(methanesulfonyl)pyridin-4-yl]-5-(trifluoromethyl)benzoxazole], for which the pest or weed control at 500 ppm in test [5] is at least 90%.
In the case of `FC(F)(F)COc1cnccc1-c1nc2cc3c(cc2o1)C(F)(F)OC3(F)F` [active compound 89, 5,5,7,7-tetrafluoro-2-[3-(2,2,2-trifluoroethoxy)pyridin-4-yl]-5,7-dihydro-furo[3′,4′:4,5]benzo[1,2-d]oxazole], the pest or weed control at 500 ppm in test [1], in test [2] and in test [3] was at least 90% throughout.
With `COc1cnccc1-c1nc2cc3c(cc2o1)C(F)(F)OC3(F)F` [active compound 88, 5,5,7,7-tetrafluoro-2-(3-methoxypyridin-4-yl)-5,7-dihydro-furo[3′,4′:4,5]benzo[1,2-d]oxazole], the pest or weed control at 500 ppm in test [1], in test [6], in test [2] and in test [3] was at least 90% throughout.
On to `FC(F)Oc1cnccc1-c1nc2cc(C(F)(F)F)ccc2o1` [active compound 126, 2-(3-difluoromethoxypyridin-4-yl)-5-(trifluoromethyl)benzoxazole], for which the pest or weed control at 500 ppm in test [1], in test [6], in test [2] and in test [4] was at least 90% each time.
On to `CC(C)(C)c1ccc2nc(-c3ccncc3)oc2c1` [active compound 8, 6-tert-butyl-2-(pyridin-4-yl)-benzoxazole], for which the pest or weed control at 500 ppm in test [2] and in test [3] was at least 90% each time.
As to `CCOCCOc1cnccc1-c1nc2cc(C(F)(F)F)ccc2o1` [active compound 122, 2-[3-(2-ethoxyethoxy)pyridin-4-yl]-5-(trifluoromethyl)benzoxazole], the pest or weed control at 500 ppm in test [1], in test [2] and in test [3] was at least 90% in each case.
As for `FC(F)(F)CSc1cnccc1-c1nc2cc(C(F)(F)F)ccc2o1` [active compound 46, 2-[3-(2,2,2-trifluoroethylthio)pyridin-4-yl]-5-(trifluoromethyl)benzoxazole], the pest or weed control at 500 ppm in test [1], in test [2], in test [3] and in test [4] was at least 90% each time.
Regarding `CCc1cnccc1-c1nc2cc3c(cc2o1)C(F)(F)OC3(F)F` [active compound 98, 2-(3-ethylpyridin-4-yl)-5,5,7,7-tetrafluoro-5,7-dihydro-furo[3′,4′:4,5]benzo[1,2-d]oxazole], the pest or weed control at 500 ppm in test [1], in test [2], in test [3] and in test [4] was at least 90% in each case.
Take `CCCc1ccc2oc(-c3ccncc3)nc2c1` [active compound 1, 5-propyl-2-(pyridin-4-yl)-benzoxazole]: the pest or weed control at 500 ppm in test [2] and in test [3] was at least 90% in each case.
`FC(F)(F)c1cnc2oc(-c3ccncc3)nc2c1` [active compound 138, 2-pyridin-4-yl-6-(trifluoromethyl)oxazolo[5,4-b]pyridine]: in test [3], the pest or weed control at 500 ppm is at least 90%.
For the molecule `FC(F)(F)C(F)(c1ccc2oc(-c3ccncc3)nc2c1)C(F)(F)F` [active compound 67, 2-(pyridin-4-yl)-5-(heptafluoroisopropyl)benzoxazole], the pest or weed control at 500 ppm in test [3] is at least 90%.
Same read-out and setting: the result for `FC(F)(F)c1ccc2oc(-c3ccncc3-c3ccccc3)nc2c1` [active compound 32, 2-(3-phenylpyridin-4-yl)-5-(trifluoromethyl)benzoxazole] reads at least 90%.
